The source of these data is PMC6009893, “Synthesis, biological activity and molecular modelling studies of shikimic acid derivatives as inhibitors of the shikimate dehydrogenase enzyme of Escherichia coli” (Journal of Enzyme Inhibition and Medicinal Chemistry, 2018).

The target in test [1] is T1, EcSDH (shikimate dehydrogenase enzyme of Escherichia coli) (Escherichia coli, UniProt P15770).
T1 construct: 6-Histidine tag (pCold-I) (N, cleaved yes); made in house; host or cells: E. coli ΔaroE::KanR (JW3242, Keio collection) carrying pCold-EcSDH
T1 sequence (P15770 whole entry): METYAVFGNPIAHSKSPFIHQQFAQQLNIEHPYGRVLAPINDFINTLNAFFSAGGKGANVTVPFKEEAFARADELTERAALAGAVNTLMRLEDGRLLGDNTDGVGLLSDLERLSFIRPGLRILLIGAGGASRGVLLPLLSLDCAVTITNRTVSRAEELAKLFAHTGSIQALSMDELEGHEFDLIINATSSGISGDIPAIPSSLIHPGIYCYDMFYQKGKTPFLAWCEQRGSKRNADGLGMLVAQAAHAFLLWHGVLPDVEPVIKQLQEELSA
Nature of the test: EcSDH enzymatic activity assay (NADPH oxidation at 340 nm, DHS as substrate). The test is classed as biochemical. The note with it: for KI (dissociation constant for the enzyme-substrate-inhibitor complex): 25 °C, NADPH 0.21 mM, DHS 0.0625-1.5 mM, mixed type inhibition, triplicate. The method, then: The enzymatic activity of EcSDH was assayed at 25 °C by monitoring the oxidation of NADPH at 340 nm (ϵ = 6.18 × 10^3 M^−1 cm^−1). All assays were performed in a Genesys 10 S UV-vis spectrophotometer (Thermo Fisher Scientific Inc., Waltham, MA). The reaction mix contained (final volume 200 µl) KH2PO4 100 mM pH 7.5, NADPH 0.21 mM, DHS, synthesised molecules and diluted enzyme. Stored enzyme stocks (200 U/ml) were diluted 1:100 in KH2PO4 100 mM pH 7.5 before use. The reaction was initiated by addition of 2 µl of the diluted EcSDH enzyme and absorbance was measured within 2 min. During assays NADPH concentration was fixed at 0.21 mM, DHS concentrations were 0.0625, 0.125, 0.25, 0.5, 1 and 1.5 mM and concentrations of amides were 0, 0.25, 0.5, 1 and 1.5 mM. Experiments were performed in triplicate.
To determine the inhibition mode Lineweaver–Burk plots of the inverse of velocities (1/v) versus the inverse of substrate concentration 1/[S] were obtained. The Michaelis–Menten constant (Km), maximum velocity (Vmax) and inhibition constants (Ki and KI) were analysed using Equation (1)[22]^,[23]. Where I represent the inhibitor concentration, KI is defined as the dissociation constant for the enzyme-substrate-inhibitor complex and Ki as the dissociation constant for the enzyme-inhibitor complex. Kinetic data were processed by nonlinear regression using the Origin software (OriginLab, Northampton, MA).
Dissociation constants were related to IC50 values following the Cheng–Prusoff Equation (2)[24]. Where IC50 represents the concentration of inhibitor producing 50% of enzyme inhibition. The determined Km of DHS was 92.29 ± 2.70 µM, and 125 µM of DHS was delimited as the substrate concentration [S]: (1) v=Vmax [S]/S1+I/KI+ Km(1+ [I]/Ki) (2) IC50= Km+[S]/Km/Ki+ ([S]/KI).
The inhibitory effect of SA amide-derivatives was tested against EcSDH at […]. To characterise the enzymatic activity for its more biological meaningful reaction, the enzyme was assayed in the direction of SA formation, for this DHS was used as the substrate. The activity of EcSDH enzyme was determined in the presence of different concentrations of synthesised compounds, and Lineweaver–Burk plots of (1/v) versus 1/[S] were obtained. […] To characterise the kinetic parameters, data were analysed using Equation (1). For every synthesised amide Ki < KI indicating a stronger affinity for the substrate free instead of bounded substrate enzyme. […] Despite the similar magnitude of inhibition, it appears that inhibition activity smoothly increases with increase in the alkyl chain length. […] The similar inhibitory effect of diamides may arise with strong participation of the extra SA substituent.

The test system of the next test is E. coli strain JM101. Nature of the test: Minimal inhibitory concentration (MIC), broth microdilution. The test is classed as cell-based. Conditions: Escherichia coli, LB media, 37 °C, 16 h, tested 4-512 mg/l, duplicate. As to the method:
The broth microdilution method[25] was used to determine the MIC of synthesised molecules against E. coli strain JM101. Cells were grown to exponential phase in LB media (OD600nm ∼0.5) and the cultures were diluted to a concentration of 2 × 10^5 colony-forming units/ml. The 96-well plates containing 75 µl of LB media and synthesised compounds were inoculated with 75 µl of the bacterial suspension and shaken at 37 °C for 16 h. Compounds were tested in a range of doubling concentrations between 4 and 512 mg/l with a final dimethylsulphoxide concentration of 0.8% (v/v). LB media supplemented with kanamycin was used as a positive control, and the OD600nm of the DMSO-treated control was taken as representative of 100% bacterial growth. […] Experiments were performed in duplicate.
On the technique in general: In broth dilution the organism is exposed to a series of concentrations in liquid medium.

Test [2] relates to SDH enzyme of Escherichia coli (EcSDH). Further details: method as in earlier work. Conditions: cited from earlier work.
A further test concerns the target SDH of H. pylori. On the set-up: method as in PMID 16972983. The note with it: SA; non-competitive inhibitor; cited from earlier work.
A further test deals with H. pylori. On the set-up: method as in PMID 16972983. Conditions: in vitro antibacterial activity; cited from earlier work.
The subject of test [3] is SDH of Pseudomonas putida. On the set-up: method as in PMID 24632659. Conditions: cited from earlier work.
In a further test the target is Pisum sativum SDH enzyme. On the set-up: method as in PMID 13686343. Conditions: SA; competitive inhibition; cited from earlier work.

Converted amounts (≈) assume the structure as drawn.

For `O=C(NCCNC(=O)C1=C[C@@H](O)[C@@H](O)[C@H](O)C1)C1=C[C@@H](O)[C@@H](O)[C@H](O)C1` [Dim2, (3R,3'R,4S,4'S,5R,5'R)-N,N'-(ethane-1,2-diyl)bis(3,4,5-trihydroxycyclohex-1-ene-1-carboxamide)], in test [1], the midpoint of inhibition, the IC50, lay at 588 ± 55 µM; the Ki (commonly a dissociation constant, usually derived from enzyme kinetics or from competition with a known ligand) was 416 ± 69 µM; the “KI (dissociation constant for the enzyme-substrate-inhibitor complex)” value was determined as 831 ± 12 µM. Further, the MIC (in general, the lowest concentration that inhibits growth of the organism) against E. coli strain JM101 was 512 µg/mL (≈ 1370 µM).

On to `O=C(NCCCNC(=O)C1=C[C@@H](O)[C@@H](O)[C@H](O)C1)C1=C[C@@H](O)[C@@H](O)[C@H](O)C1` [Dim3, (3R,3'R,4S,4'S,5R,5'R)-N,N'-(propane-1,3-diyl)bis(3,4,5-trihydroxycyclohex-1-ene-1-carboxamide)], for which, in test [1], the concentration for half-maximal inhibition (IC50) (in general, the concentration that inhibits the measured activity by half) came out at 589 ± 56 µM; the affinity, expressed as Ki, was 400 ± 50 µM; the “KI (dissociation constant for the enzyme-substrate-inhibitor complex)” value is 896 ± 72 µM. In the test with E. coli strain JM101, the MIC was 512 µg/mL (≈ 1330 µM).

For `O=C(NCCCCNC(=O)C1=C[C@@H](O)[C@@H](O)[C@H](O)C1)C1=C[C@@H](O)[C@@H](O)[C@H](O)C1` [Dim4, (3R,3'R,4S,4'S,5R,5'R)-N,N'-(butane-1,4-diyl)bis(3,4,5-trihydroxycyclohex-1-ene-1-carboxamide)], in test [1], the 50% inhibitory concentration (IC50) worked out at 652 ± 65 µM, the inhibitory constant (Ki) is 458 ± 81 µM and the “KI (dissociation constant for the enzyme-substrate-inhibitor complex)” value is given as 945 ± 13 µM. Besides, in the test with E. coli strain JM101, it took 512 µg/mL (≈ 1280 µM) to inhibit growth (MIC).

Take `O=C(NCCCO)C1=C[C@@H](O)[C@@H](O)[C@H](O)C1` [Mon3, (3R,4S,5R)-3,4,5-trihydroxy-N-(3-hydroxypropyl)cyclohex-1-ene-1-carboxamide]: in test [1], the IC50 was 949 ± 33 µM; the affinity, expressed as Ki, was 733 ± 67 µM; the “KI (dissociation constant for the enzyme-substrate-inhibitor complex)” value was 1214 ± 58 µM. The compound further yielded an MIC with E. coli strain JM101 of 512 µg/mL (≈ 2210 µM).

In the case of `O=C(NCCCCO)C1=C[C@@H](O)[C@@H](O)[C@H](O)C1` [Mon4, (3R,4S,5R)-3,4,5-trihydroxy-N-(4-hydroxybutyl)cyclohex-1-ene-1-carboxamide], in test [1], the IC50 came to 882 ± 54 µM, the Ki came to 717 ± 71 µM and the “KI (dissociation constant for the enzyme-substrate-inhibitor complex)” value came out at 1145 ± 130 µM. In the test with E. coli strain JM101, the minimal inhibitory concentration (MIC) is 512 µg/mL (≈ 2090 µM).

Turning to `O=C(NCCCCCO)C1=C[C@@H](O)[C@@H](O)[C@H](O)C1` [Mon5, (3R,4S,5R)-3,4,5-trihydroxy-N-(5-hydroxypentyl)cyclohex-1-ene-1-carboxamide], in test [1], the IC50 was determined as 953 ± 10 µM, the Ki was found to be 642 ± 34 µM and the “KI (dissociation constant for the enzyme-substrate-inhibitor complex)” value was 1483 ± 91 µM. This compound also came in with an MIC against E. coli strain JM101 of 512 µg/mL (≈ 1970 µM).

Consider `O=C(NCCCCCCO)C1=C[C@@H](O)[C@@H](O)[C@H](O)C1` [Mon6, (3R,4S,5R)-3,4,5-trihydroxy-N-(6-hydroxyhexyl)cyclohex-1-ene-1-carboxamide], for which, in test [1], the 50% inhibitory concentration (IC50) amounted to 829 ± 49 µM; the affinity, expressed as Ki, was 587 ± 49 µM; the “KI (dissociation constant for the enzyme-substrate-inhibitor complex)” value came to 1188 ± 26 µM. In the test with E. coli strain JM101, this compound registered an MIC of 512 µg/mL (≈ 1870 µM).

Take `O=C(O)C1=C[C@@H](O)[C@@H](O)[C@H](O)C1` [SA, (-)-shikimic acid]: the Ki in test [2] is 160 µM.

On to `COc1cc(/C=C/C(=O)CC(=O)/C=C/c2ccc(O)c(OC)c2)ccc1O` [curcumin], for which the Ki at SDH of H. pylori was 6 µM. For the same compound, the MIC in the test on H. pylori was 16 µg/mL (≈ 43.4 µM).

As for `O=C(O[C@@H]1Cc2c(O)cc(O)cc2O[C@@H]1c1cc(O)c(O)c(O)c1)c1cc(O)c(O)c(O)c1` [epigallocatechin gallate], in test [3], the IC50 was 3 µM.

As to `O=C(O)c1cc(O)c(O)c(O)c1` [gallic acid], at Pisum sativum SDH enzyme, the inhibition constant Ki was 380 µM.

In the case of `O=C(O)c1ccc(O)c(O)c1` [protocatechuic acid], on Pisum sativum SDH enzyme, the Ki is 750 µM.

Take `COc1cc(C=O)ccc1O` [vanillin]: at Pisum sativum SDH enzyme, the Ki was 93 µM.
